We go through 10 compounds from ChEMBL document CHEMBL1152056, “Targeting radiosensitizers to DNA by minor groove binding: nitroarenes based on netropsin and distamycin” (1993).

The nature of test [1]: Concentration required to kill 50 % of the cells after ca. 7 days exposure. The test is classed as functional, Cricetulus griseus.
Test [2] can be described thus: Cellular uptake was calculated as the ratio of intracellular and extracellular concentration in V79 hamster cells. The format is functional, Cricetulus griseus.
The next test concerns Nucleic Acid. Briefly: Concentration required for 50% decrease in fluorescence of ethidium bromide bound to calf thymus DNA. at 600 nm. The format is nucleic-acid assay. The note with it: Bos taurus.
Test [3] in a line: Enhancement ratio was calculated to determine the radiosensitization as the ratio of radiation dose required to kill similar cells in anoxia to those with the compound; at a concentration of 0.5 mM. The format is functional, Cricetulus griseus.
Test [4] can be described thus: Concentration required to kill 50 % of the cells after ca. 7 days aerobic exposure. The format is functional, Cricetulus griseus.
The nature of test [5]: Enhancement ratio was calculated to determine the radiosensitization as the ratio of radiation dose required to kill similar cells in anoxia to those with the compound; at a concentration of ~5 mM. The test is classed as functional, Cricetulus griseus.
The nature of test [6]: Enhancement ratio was calculated to determine the radiosensitization as the ratio of radiation dose required to kill similar cells in anoxia to those with the compound; at a concentration of 0.05 mM. The format is functional, Cricetulus griseus.
Test [7] in a line: Concentration required to kill 50 % of the cells after ca. 7 days aerobic exposure; value ranges from 0.025-0.05. The test is classed as functional, Cricetulus griseus.
Test [8] is described as follows: Enhancement ratio was calculated to determine the radiosensitization as the ratio of radiation dose required to kill similar cells in anoxia to those with the compound; at a concentration of 1.0 mM. The test is classed as functional, Cricetulus griseus.

For the compound `Cl.Cn1cc(NC(=O)c2cc(NC(=O)c3ccc([N+](=O)[O-])o3)cn2C)cc1C(=O)NCCC(=N)N`, the C50 in [1] is below 0.01 mM; in the test with Nucleic Acid, 4.8 µM. Further, in test [2], the “Ratio (Ci/Ce)” value is given as 9.4. Besides, the Ratio in test [3] is reported as 1.16.

As to `Cl.Cn1cc(NC(=O)c2cc(NC(=O)Cn3ccnc3[N+](=O)[O-])cn2C)cc1C(=O)NCCC(=N)N`, the “Ratio (Ci/Ce)” value in [2] was 3.6. Also, the C50 in test [4] was above 0.25 mM; in the test with Nucleic Acid, 16 µM. Also, the Ratio in test [3] is on record as 1.04.

Turning to `Cc1ncc([N+](=O)[O-])n1CCO` [METRONIDAZOLE], the Ratio in test [5] is recorded as 1.6. Moreover, the C50 in [4] was 6.5 mM; in the test with Nucleic Acid it was 3200 µM.

`NC(=O)N/N=C/c1ccc([N+](=O)[O-])o1` [NITROFURAZONE]: in test [6], the Ratio is given as 1.6. For the same compound, the C50 was 0.13 mM in [4] and above 1000 µM in the test on Nucleic Acid.

The compound `Cn1cc(NC(=O)c2cc(NC(=O)CNC(=N)N)cn2C)cc1C(=O)NCCC(=N)N` came in with a C50 in the test with Nucleic Acid of 1.1 µM.

As to `Cl.Cn1cc(NC(=O)Cn2ccnc2[N+](=O)[O-])cc1C(=O)NCCC(=N)N`, the C50 was above 0.25 mM in test [4] and 6.8 µM with Nucleic Acid. In [3], the Ratio was 1.04.

In turn, `Cn1cc(NC(=O)c2cc(NC(=O)c3cc(NC=O)cn3C)cn2C)cc1C(=O)NCCC(=N)N` yielded a C50 in the test on Nucleic Acid of 1.3 µM.

`Cl.Cn1cc(NC(=O)c2ccc([N+](=O)[O-])o2)cc1C(=O)NCCC(=N)N`: the C50 amounted to 0.025 mM in [7] and 26 µM in the test on Nucleic Acid. Further, in [6], the Ratio is 1.3.

As to `O=C(Cn1ccnc1[N+](=O)[O-])NCCO` [ETANIDAZOLE], in test [2], the “Ratio (Ci/Ce)” value is given as 0.4. In the test with Nucleic Acid, the C50 is 3000 µM. Besides, the Ratio in test [8] is 1.55.

As to `COCC(O)Cn1ccnc1[N+](=O)[O-]` (stereo not drawn) [MISONIDAZOLE], the “Ratio (Ci/Ce)” value in test [2] is on record as 0.7. Also, the figures for the C50 (in test [4]; in the test on Nucleic Acid) were 1.3 mM and 2700 µM, respectively.
